Measured values reported in patent publication US12162893B2 (Erasca, Inc., priority 2020, dated 2024).

Target: T1, mutant G12C K-RAS (Homo sapiens, UniProt P01116, G12C)
T1 construct: made in house; host or cells: E. coli BL21
Assay: covalent adduct formation (CAF) with mutant G12C K-RAS
Type: binding
Details: Table 6; 10 μM, 1 h
Protocol: Embodiments disclosed herein are further illustrated by the following examples in Tables 1-4 and the Examples hereinbelow. The Tables indicate the compound number, structure, the observed mass spectral molecular weight peak, and covalent adduct formation (CAF) with a mutant G12C K-RAS after 60 minutes at a concentration of 10 micromolar.

% CAF @ 10 μM,1 h [%]	SMILES
56.9	C=CC(=O)N1C[C@H](C)N(c2nc(=O)n3c4c(c(-c5ccc(F)cc5F)c(C#N)cc24)OC[C@H]3CCCN2C[C@@H]3C[C@H]2CO3)C[C@H]1C [Example 332, (3R)-3-(3-((1S,4S)-2-oxa-5-azabicyclo[2.2.1]heptan-5-yl)propyl)-7-((2S,5R)-4-acryloyl-2,5-dimethylpiperazin-1-yl)-10-(2,4-difluorophenyl)-5-oxo-2,3-dihydro-5H-[1,4]oxazino[2,3,4-ij]quinazoline-9-carbonitrile]
83.9	C=CC(=O)N1C[C@H](C)N(c2nc(=O)n3c4c(c(-c5ccc(F)cc5F)c(Cl)cc24)OC[C@H]3CC2CCN(CC)CC2)C[C@H]1C [Example 333, (3R)-7-((2S,5R)-4-acryloyl-2,5-dimethylpiperazin-1-yl)-9-chloro-10-(2,4-difluorophenyl)-3-((1-ethylpiperidin-4-yl)methyl)-2H-[1,4]oxazino[2,3,4-ij]quinazolin-5(3H)-one]
84.6	C=CC(=O)N1C[C@H](C)N(c2nc(=O)n3c4c(c(-c5ccc(F)cc5F)c(Cl)cc24)OC[C@H]3CCCN2CC[C@H](OC)C2)C[C@H]1C [Example 334, (3R)-7-((2S,5R)-4-acryloyl-2,5-dimethylpiperazin-1-yl)-9-chloro-10-(2,4-difluorophenyl)-3-(3-((S)-3-methoxypyrrolidin-1-yl)propyl)-2,3-dihydro-5H-[1,4]oxazino[2,3,4-ij]quinazolin-5-one]
54.6	C=CC(=O)N1C[C@H](C)N(c2nc(=O)n3c4c(c(-c5ccc(F)cc5F)c(Cl)cc24)OC[C@H]3CO[C@H]2CCN(C)C2)C[C@H]1C [Example 335, (3R)-7-((2S,5R)-4-acryloyl-2,5-dimethylpiperazin-1-yl)-9-chloro-10-(2,4-difluorophenyl)-3-((((S)-1-methylpyrrolidin-3-yl)oxy)methyl)-2H-[1,4]oxazino[2,3,4-ij]quinazolin-5(3H)-one]

More lines, now with the values behind:

SMILES	% CAF @ 10 μM,1 h [%]
C=CC(=O)N1C[C@H](C)N(c2nc(=O)n3c4c(c(-c5ccc(F)cc5F)c(Cl)cc24)OC[C@H]3CC2CCN(C3CC3)CC2)C[C@H]1C [Example 329, (3R)-7-((2S,5R)-4-acryloyl-2,5-dimethylpiperazin-1-yl)-9-chloro-3-((1-cyclopropylpiperidin-4-yl)methyl)-10-(2,4-difluorophenyl)-2H-[1,4]oxazino[2,3,4-ij]quinazolin-5(3H)-one]	73.4
C=CC(=O)N1C[C@H](C)N(c2nc(=O)n3c4c(c(-c5ccc(F)cc5F)c(Cl)cc24)OC[C@H]3CCCN2CC[C@H](F)C2)C[C@H]1C [Example 330, (3R)-7-((2S,5R)-4-acryloyl-2,5-dimethylpiperazin-1-yl)-9-chloro-10-(2,4-difluorophenyl)-3-(3-((S)-3-fluoropyrrolidin-1-yl)propyl)-2,3-dihydro-5H-[1,4]oxazino[2,3,4-ij]quinazolin-5-one]	91.7
C=CC(=O)N1C[C@H](C)N(c2nc(=O)n3c4c(c(-c5ccc(F)cc5F)c(Cl)cc24)OC[C@H]3CCCN(CC(F)(F)F)C2COC2)C[C@H]1C [Example 331, (3R)-7-((2S,5R)-4-acryloyl-2,5-dimethylpiperazin-1-yl)-9-chloro-10-(2,4-difluorophenyl)-3-(3-(oxetan-3-yl(2,2,2-trifluoroethyl)amino)propyl)-2,3-dihydro-5H-[1,4]oxazino[2,3,4-ij]quinazolin-5-one]	59.2
C=CC(=O)N1C2CC(=O)CC1CN(c1nc(=O)n3c4c(c(-c5ccc(F)cc5F)c(C(F)(F)F)cc14)OCC3)C2 [Example 337, 7-(9-acryloyl-7-oxo-3,9-diazabicyclo[3.3.1]nonan-3-yl)-10-(2,4-difluorophenyl)-9-(trifluoromethyl)-2,3-dihydro-5H-[1,4]oxazino[2,3,4-ij]quinazolin-5-one]	95.9
